Test [1] has as its target T1, recombinant human B1 receptors (Homo sapiens, UniProt P46663).
T1 construct: host or cells: CHO (CHO-B1)
T1 sequence (P46663 1-353): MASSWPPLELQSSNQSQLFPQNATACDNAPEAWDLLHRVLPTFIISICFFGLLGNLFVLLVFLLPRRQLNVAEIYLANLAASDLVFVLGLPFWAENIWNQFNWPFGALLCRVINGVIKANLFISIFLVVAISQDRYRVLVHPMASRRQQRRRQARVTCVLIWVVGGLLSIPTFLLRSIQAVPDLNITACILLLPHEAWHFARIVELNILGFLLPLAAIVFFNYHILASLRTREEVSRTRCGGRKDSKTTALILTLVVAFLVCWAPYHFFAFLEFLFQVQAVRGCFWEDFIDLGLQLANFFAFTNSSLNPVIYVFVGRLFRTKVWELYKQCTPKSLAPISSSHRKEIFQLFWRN
As to the kind of experiment: Functional assay: antagonist potency by cytosolic calcium measurement (plate reader fluorimeter) in CHO-B1 cells, agonist LysDABK. The conditions noted are these: CHO-B1 cells, inhibition of LysDABK (EC80)-evoked [Ca2+]i elevation; read-out: B1 func. The format is cell-based. The method, then: Assessment of Antagonist Potency at B1 Receptors In Vitro by Measurement of Cytosolic Calcium Ion Concentration with a Plate Reader Fluorimeter in Cells Expressing Recombinant Human B1 Receptors
Chinese hamster ovary (CHO) cells stably expressing recombinant human B1 (CHO-B1, Euroscreen) receptors were cultured in Dulbecco's Modified Eagle's Medium (DMEM) containing 10% Fetal Calf Serum (FCS), 100 U/ml penicillin, 0.1 mg/ml streptomycin, 0.25 μg/ml amphotericin B, 1% Minimum Essential Medium Eagle (MEM), non essential amino acid solution, 600 μg/ml G418. Cells were kept at 37° C. in a humidified incubator in an atmosphere of 5% CO2/95% air and were passaged 1:4 three times a week. Cells were plated at 1.5−2.5×10^4 cell/well on standard 96-well microplates, measurements of cytosolic calcium ion concentration ([Ca^2+]i) were carried out 1-2 days after cell plating.
Measurements of [Ca^2+]i were carried out on CHO-B1 cells stably expressing human B1 receptors, respectively. Cells were grown in standard 96-well microplates and before the measurement were loaded with a fluorescent Ca^2+-sensitive dye, fluo-4/AM (2 μM): after removing the culture medium the dye was added to the cells (dissolved in assay buffer: 145 mM NaCl, 5 mM KCl, 2 mM MgCl2, 2 mM CaCl2, 10 mM HEPES, 20 mM D-glucose, 2 mM probenecid, 100 μl/well) and cells were incubated at 37° C. in a humidified incubator in an atmosphere of 5% CO2/95% air for 40-120 min. To stop dye loading cells were washed twice with assay buffer. After washing, various concentrations of the test compounds (diluted in extracellular medium from a DMSO stock solution, final DMSO concentration was <0.1%) or buffer were added to each well depending on the experimental setup. After incubation at 37° C. for 20-25 min. baseline and agonist-evoked changes of [Ca^2+]; were measured column by column with a plate reader fluorimeter (Fluoroskan Ascent, Labsystems). Excitation and detection of emission was carried out from the bottom of the plate. Filters used for Fluo-4: excitation filter 485 nm, emission filter 538 nm. The whole measurement process was performed at 37° C. and was controlled by custom software. Inhibitory potency of the test compounds was assessed by measuring the reduction in the agonist-evoked [Ca^2+]i-elevation in the presence of different concentrations of the compounds. The agonist was LysDABK for CHO-B1 cells. Agonist was applied at an EC80 concentration; the EC80-values were derived from daily determined dose-response curves. Fluorescence data were expressed as ΔF/F (fluorescence change normalized to baseline). All treatments on a single plate were measured in multiple wells. Data from all wells with the same treatment were averaged and the average values were used for analysis. Inhibitory potency of a compound at a single concentration point was expressed as percent inhibition of the control agonist response. Sigmoidal concentration-inhibition curves were fitted to the data (derived from at least three independent experiments) and IC50-values were determined as the concentration that produces half of the maximal inhibition caused by the compound.

Test [2] addresses T2, human recombinant bradykinin B1 receptor (Homo sapiens, UniProt P46663).
T2 construct: host or cells: CHO cells, clone hB1-A5
T2 sequence (P46663 1-353): T1 sequence (P46663 1-353)
In words: Human recombinant bradykinin B1 receptor competitive radioligand binding. The conditions noted are these: hB1 expressed in CHO cells, [3H]-[Des-Arg10] Kallidin radioligand; read-out: B1 binding. The method, then: Assessment of Ligand Binding Affinity to B1 and B2 Receptors In Vitro by Competitive Radioligand Binding Assay
Binding assays were carried out on human recombinant bradykinin) receptors (expressed in CHO cells, hB1-A5) according to the Euroscreen Technical Data Sheet (Cat.No.:ES-091). 20 μg protein/tube was incubated with [3,4-prolyl-3,4-^3H(N)]-[Des-Arg^10] Kallidin as radioligand. Non specific binding was determined in the presence of 10 μM Lys-des-Arg^9-Bradykinin. The final incubation volume was 250 μl. Samples were incubated for 15 min. at 25° C. then were rapidly vacuum filtered through GF/B filters presoaked for at least 1 h in 0.5% PEI. Radioactivity was determined by liquid scintillation spectroscopy.
The ligand displacement by the compounds was determined using a minimum of seven concentrations in triplicate, and experiments were repeated at least two times. The specific radioligand binding is defined as the difference between total binding and the non-specific binding determined in the presence of an excess of unlabelled ligand. Results are expressed as a percent inhibition of specific binding obtained in the presence of RGH-478 or reference drugs. IC50 values (i.e. concentration of compound giving 50% inhibition of specific binding) were calculated from concentration-displacement curves by sigmoidal fitting using GraphPad Prism Software 4.0. Ki values (i.e. inhibition constants) were calculated using the Cheng-Prusoff equation. KD was determined from the Scatchard plot. (Editor-in-chief: Enna, S. J. and Williams, M. Current protocols in pharmacology vol. 1. John Wiley & sons Inc., 1998)

Each structure is given as a SMILES string.

On to `Cn1nnc(-c2c(Cl)c3ccccc3n2-c2ccc(CNC(=O)C3(NC(=O)C(F)(F)F)CC3)cc2)n1` [Example 1, 1-(2,2,2-Trifluoro-acetylamino)-cyclopropanecarboxylic acid 4-[3-chloro-2-(2-methyl-2H-tetrazol-5-yl)-indol-1-yl]-benzylamide], for which the IC50 in test [1] is less than 20 nM. Moreover, the Ki in test [2] is less than 20 nM.
In the case of `COc1cc(C(=O)NC2(C(=O)NCc3ccc(-n4c(-c5nnn(C)n5)c(Cl)c5ccccc54)cc3)CC2)on1` [Example 2, 3-Methoxy-isoxazole-5-carboxylic acid (1-{4-[3-chloro-2-(2-methyl-2H-tetrazol-5-yl)-indol-1-yl]-benzylcarbamoyl}-cyclopropyl)-amide], the IC50 in test [1] is less than 20 nM. The Ki in test [2] is less than 20 nM.
As for `COc1cc(C(=O)NC2(C(=O)NCc3ccc(-n4c(-c5nnn(C)n5)cc5ccccc54)cc3)CC2)on1` [Example 3, 3-Methoxy-isoxazole-5-carboxylic acid (1-{4-[2-(2-methyl-2H-tetrazol-5-yl)-indol-1-yl]-benzylcarbamoyl}-cyclopropyl)-amide], the IC50 in test [1] was less than 20 nM. In addition, the Ki in test [2] is less than 20 nM.
On to `Cn1nnc(-c2c(Cl)c3ccccc3n2-c2ccc(CNC(=O)C3(NC(=O)C(F)(F)F)CC3)c(F)c2)n1` [Example 4, 1-(2,2,2-Trifluoro-acetylamino)-cyclopropanecarboxylic acid 4-[3-chloro-2-(2-methyl-2H-tetrazol-5-yl)-indol-1-yl]-2-fluorobenzylamide], for which the IC50 in test [1] was less than 20 nM. The Ki in test [2] is less than 20 nM.
Regarding `COc1cc(C(=O)NC2(C(=O)NCc3ccc(-n4c(-c5nnc(C)o5)c(Cl)c5ccccc54)cc3)CC2)on1` [Example 5, 3-Methoxy-N-[1-({4-[3-chloro-2-(5-methyl-1,3,4-oxadiazol-2-yl)-1H-indol-1-yl]benzyl}carbamoyl)cyclopropyl]isoxazole-5-carboxamide], in test [1], the IC50 was less than 20 nM. Also, the Ki in test [2] was less than 20 nM.
Turning to `Cc1nnc(-c2c(Cl)c3ccccc3n2-c2ccc(CNC(=O)C3(NC(=O)C(F)(F)F)CC3)cc2)o1` [Example 6, 1-(2,2,2-Trifluoro-acetylamino)-cyclopropanecarboxylic acid 4-[3-chloro-2-(5-methyl-[1,3,4]oxadiazol-2-yl)-indol-1-yl]-benzylamide], the IC50 in test [1] was in the range of 20 to 100 nM. Further, the Ki in test [2] fell in the range of 20 to 100 nM.
As for `COc1cc(C(=O)NC2(C(=O)NCc3ccc(-n4c(-c5nnnn5C)c(Cl)c5ccccc54)cc3)CC2)on1` [Example 7, 3-Methoxy-isoxazole-5-carboxylic acid (1-{4-[3-chloro-2-(1-methyl-1H-tetrazol-5-yl)-indol-1-yl]-benzylcarbamoyl}-cyclopropyl)-amide], in test [1], the IC50 is less than 20 nM. Also, in test [2], the Ki is less than 20 nM.
Consider `Cn1nnnc1-c1c(Cl)c2ccccc2n1-c1ccc(CNC(=O)C2(NC(=O)C(F)(F)F)CC2)cc1` [Example 8, 1-(2,2,2-Trifluoro-acetylamino)-cyclopropanecarboxylic acid 4-[3-chloro-2-(1-methyl-1H-tetrazol-5-yl)-indol-1-yl]-benzylamide], for which the IC50 in test [1] is less than 20 nM. The Ki in test [2] was less than 20 nM.
In the case of `COc1cc(C(=O)NC2(C(=O)NCc3ccc(-n4c(-c5noc(C)n5)c(Cl)c5ccccc54)cc3)CC2)on1` [Example 9, 3-Methoxy-isoxazole-5-carboxylic acid (1-{4-[3-chloro-2-(5-methyl-[1,2,4]oxadiazol-3-yl)-indol-1-yl]-benzylcarbamoyl}-cyclopropyl)-amide], the IC50 in test [1] is less than 20 nM. The Ki in test [2] was less than 20 nM.
Turning to `COC(=O)c1c(Cl)c2ccccc2n1-c1ccc(CNC(=O)C2(NC(=O)C(F)(F)F)CC2)cc1` [Example 10, 3-Chloro-1-[4-({[1-(2,2,2-trifluoro-acetylamino)-cyclopropanecarbonyl]-amino}-methyl)-phenyl]-1H-indole-2-carboxylic acid methyl ester], in test [1], the IC50 is less than 20 nM. In addition, the Ki in test [2] is less than 20 nM.
As for `COC(=O)c1c(Cl)c2ccccc2n1-c1ccc(CNC(=O)C2(NC(=O)c3cc(OC)no3)CC2)cc1` [Example 11, 3-Chloro-1-{4-[({1-[(3-methoxy-isoxazole-5-carbonyl)-amino]-cyclopropane-carbonyl}-amino)-methyl]-phenyl}-1H-indole-2-carboxylic acid methyl ester], in test [1], the IC50 was less than 20 nM. The Ki in test [2] is less than 20 nM.
Regarding `Cn1nnc(-c2c(Cl)c3cc(F)ccc3n2-c2ccc(CNC(=O)C3(NC(=O)C(F)(F)F)CC3)cc2)n1` [Example 12, 1-(2,2,2-Trifluoro-acetylamino)-cyclopropanecarboxylic acid 4-[3-chloro-5-fluoro-2-(2-methyl-2H-tetrazol-5-yl)-indol-1-yl]-benzylamide], the IC50 in test [1] is less than 20 nM. Besides, the Ki in test [2] was less than 20 nM.
`COc1cc(C(=O)NC2(C(=O)NCc3ccc(-n4c(-c5nnn(C)n5)c(Cl)c5cc(F)ccc54)cc3)CC2)on1` [Example 13, 3-Methoxy-isoxazole-5-carboxylic acid (1-{4-[3-chloro-5-fluoro-2-(2-methyl-2H-tetrazol-5-yl)-indol-1-yl]-benzylcarbamoyl}-cyclopropyl)-amide]: the IC50 in test [1] is less than 20 nM. Further, in test [2], the Ki was less than 20 nM.
Turning to `COC(=O)c1cc2ccccc2n1-c1ccc(CNC(=O)C2(NC(=O)c3cc(OC)no3)CC2)cc1` [Example 14, 1-{4-[({1-[(3-Methoxy-isoxazole-5-carbonyl)-amino]-cyclopropanecarbonyl}-amino)-methyl]-phenyl}-1H-indole-2-carboxylic acid methyl ester], the IC50 in test [1] is less than 20 nM. Further, the Ki in test [2] is less than 20 nM.
In the case of `COc1cc(C(=O)NC2(C(=O)NCc3ccc(-n4c(-c5nnn(C)n5)c(Cl)c5ccccc54)cc3F)CC2)on1` [Example 15, 3-Methoxy-isoxazole-5-carboxylic acid (1-{4-[3-chloro-2-(2-methyl-2H-tetrazol-5-yl)-indol-1-yl]-2-fluorobenzylcarbamoyl}-cyclopropyl)-amide], the IC50 in test [1] is less than 20 nM. Besides, the Ki in test [2] is less than 20 nM.
Regarding `COc1cc(C(=O)NC2(C(=O)NCc3ccc(-n4c(-c5cnco5)c(Cl)c5ccccc54)cc3)CC2)on1` [Example 16, 3-Methoxy-isoxazole-5-carboxylic acid (1-{4-[3-chloro-2-(1,3-oxazol-5-yl)-indol-1-yl]-benzylcarbamoyl}-cyclopropyl)-amide], in test [1], the IC50 is less than 20 nM. Besides, the Ki in test [2] is less than 20 nM.
